PMC6815936, “A Pan-Cyclophilin Inhibitor, CRV431, Decreases Fibrosis and Tumor Development in Chronic Liver Disease Models” (The Journal of Pharmacology and Experimental Therapeutics, 2019)
Read-outs that look alike come from different tables or passages of the source. Square brackets hold non-standard residues; d marks the D form. Peptide text beside a SMILES is read from it. NMeThr(4R-Me,4-(CH2)6NHAc) = CN[C@H](C(=O)O)[C@H](O)[C@H](C)CCCCCCNC(C)=O; NMeL = CN[C@@H](CC(C)C)C(=O)O; NMeV = CN[C@H](C(=O)O)C(C)C; dNMeA = CN[C@H](C)C(=O)O; Abu = CC[C@H](N)C(=O)O

Tests used:
recombinant Cyp B (PPIB) = molecular target: T1, recombinant Cyp B (PPIB) (Homo sapiens, UniProt P23284); assay: Cyclophilin isomerase assay, Cyp B; assay type: biochemical
T1 construct: purchased Cedarlane Laboratories CLENZ313
Procedure: (§1) Cyclophilin isomerase activity was measured with an assay described by [Kofron et al. (1991)] with adaptations to 96-well plates. In this assay cyclophilins catalyze cis-to-trans isomerization of a proline peptide bond in a nitroanalide-coupled peptide substrate followed by cleavage of the trans-conformer peptide by α-chymotrypsin, release of the p-nitroaniline chromogen, and quantitation of p-nitroaniline by absorbance at 410 nm. All solutions were pre-equilibrated, and all assays were conducted at 4°C. Plates were preloaded with 5 µl peptide solution consisting of N-succinyl-alanine-alanine-proline-phenylalanine-p-nitroanilide (S7388; Sigma-Aldrich) and 400 mM lithium chloride (310468; Sigma-Aldrich) in anhydrous trifluoroethanol (T63002; Sigma-Aldrich). […] Absorbance measurements with a BMG Polarstar Galaxy plate reader were begun immediately and made at 6-second intervals for 6 minutes. Reaction curves were represented by increases in optical density 410 nm as a function of reaction time. For Ki determinations, initial reaction velocities were obtained from the reaction curves and plotted relative to substrate concentration, and the curves were fitted to the enzyme competitive inhibition model (GraphPad Prism) to derive Ki, maximum velocity (Vmax), and Michaelis constant values. […]

recombinant Cyp D (PPIF) = molecular target: T2, recombinant Cyp D (PPIF) (Homo sapiens, UniProt P30405); assay: Cyclophilin isomerase assay, Cyp D; assay type: biochemical
T2 construct: purchased Cedarlane Laboratories CLENZ385
Procedure: as §1

[1] = tested on: NFAT promoter luciferase reporter, Jurkat cells; assay: NFAT luciferase reporter assay in Jurkat cells; assay type: cell-based, human; details: for IC50: 18 hours, read-out: NFAT–Luc IC50; for NFAT–Luc IC50 Fold Difference: CRV431 vs CsA
Procedure: (§2) The luciferase reporter assays employed Jurkat cells stably transfected with gene constructs consisting of a luciferase gene plus human nuclear factor of activated T cells (NFAT) or interleukin-2 (IL-2) promoter elements (J1621 and J1651; Promega). The NFAT construct contained a DNA binding site only for NFAT, whereas the IL-2 construct contained binding sites for NFAT, nuclear factor κ-light-chain-enhancer of activated B cells, and activating protein-1 transcription factors. Cells were cultured in 96-well plates at 100,000 cells/well in RPMI 1640 medium (11875-093; Thermo Fisher) supplemented with 5% FBS (12483020; Thermo Fisher). Cells were activated either by precoating high protein-binding plates with 3 µg/ml anti-CD3 (UCHT clone) and anti-CD28 (CD28.2 clone) (BioLegend LEAF antibodies) or by adding phorbol myristate acetate (PMA; P8139; Sigma-Aldrich) to 15 ng/ml and A23187 ionophore (C7522; Sigma-Aldrich) to 0.75 µM. […] Cells were harvested after 18 hours of incubation, and luciferase was quantified with Promega Bio-Glo reagent (G7940; Promega) and measurement with a luminescence plate reader. Data were normalized to DMSO controls (100% stimulation) and to wells without antibody or PMA plus A23187 stimulation.

[2] = tested on: IL-2 promoter luciferase reporter, Jurkat cells; assay: IL-2 luciferase reporter assay in Jurkat cells; assay type: cell-based, human; details: for IC50: 18 hours, read-out: IL-2–Luc IC50; for IL-2–Luc IC50 Fold Difference: CRV431 vs CsA
Procedure: as §2

[3] = tested on: Jurkat activation (NFAT and IL-2 luciferase reporters); assay: Jurkat NFAT and IL-2 luciferase reporter assays taken together; assay type: cell-based, human
Procedure: as §2

NTCP = molecular target: T3, NTCP (Homo sapiens, UniProt Q14973); assay: Drug transporter inhibition, NTCP; assay type: in vitro ADME
T3 construct: expressed in transfected cells
Procedure: (§3) Briefly, PGP and breast cancer resistance protein inhibition was assessed by measuring the bidirectional transport of substrates across cell monolayers in transwell culture plates. Efflux ratios were represented as (apical-to-basal flux)/(basal-to-apical flux), and efflux ratios were plotted relative to CRV431 concentration to derive IC50 values. Bile salt export pump (BSEP) and multidrug resistance protein (MRP)1 inhibition was assessed by measuring substrate accumulation in membrane vesicles prepared from insect Sf9 cells and recombinantly expressing BSEP and MRP2 (Genomembrane). Inhibition of all other transporters was assessed by measuring substrate accumulation in cells recombinantly expressing the transporter. Known inhibitors of each transporter were used as positive controls for the assays. […] Specific, ATP-dependent uptake was determined by subtracting uptake in negative control vesicles and cells not expressing the transporters, and secondly by subtracting uptake in the absence of ATP in the assays. Specific, ATP-dependent uptake was plotted as a function of CRV431 concentrations and fitted to nonlinear regressions to obtain IC50 values.

[4] = CRV431 concentrations in blood and liver, mice; assay type: in vivo, mouse; details: for Liver:Blood [CRV431] Ratio: Mouse
From the text: (§4) Male and female Sprague–Dawley rats and male C57BL/6 mice from the carbon tetrachloride and NASH studies were used to evaluate CRV431 pharmacokinetics and distribution. […] Terminal whole blood and livers were collected and frozen until drug extraction. Liver samples were homogenized in PBS or 1% formic acid (0.1 g–0.4 g liver sample per ml solvent) with bead-based homogenizers (TissueLyser or Beadruptor). […] Liver CRV431 concentrations were normalized to the masses of the liver samples.

[5] = CRV431 concentrations in blood and liver, rats; assay type: in vivo; details: Rat
From the text: as §4

BCRP = BCRP (Homo sapiens, UniProt Q9UNQ0)
Procedure: as §3

BSEP [6] = molecular target: T4, BSEP (Homo sapiens, UniProt O95342)
Procedure: (§5) Bile salt export pump (BSEP) and multidrug resistance protein (MRP)1 inhibition was assessed by measuring substrate accumulation in membrane vesicles prepared from insect Sf9 cells and recombinantly expressing BSEP and MRP2 (Genomembrane). Inhibition of all other transporters was assessed by measuring substrate accumulation in cells recombinantly expressing the transporter. Known inhibitors of each transporter were used as positive controls for the assays. […] Specific, ATP-dependent uptake was determined by subtracting uptake in negative control vesicles and cells not expressing the transporters, and secondly by subtracting uptake in the absence of ATP in the assays. Specific, ATP-dependent uptake was plotted as a function of CRV431 concentrations and fitted to nonlinear regressions to obtain IC50 values.

OATP1B3 = OATP1B3 (Homo sapiens, UniProt Q9NPD5)
Procedure: as §3

BSEP [7] = molecular target: T4, BSEP; assay: Drug transporter inhibition, BSEP; details: Vesicles
Procedure: as §5

OAT3 = OAT3 (Homo sapiens, UniProt Q8TCC7); assay: Drug transporter inhibition, OAT3; details: OAT3, HEK293
Procedure: as §5

[8] = CD3 + CD28 antibodies stimulation
[9] = mouse, in vivo, po, 50 mg/kg/day

T1 sequence (P23284 34-216): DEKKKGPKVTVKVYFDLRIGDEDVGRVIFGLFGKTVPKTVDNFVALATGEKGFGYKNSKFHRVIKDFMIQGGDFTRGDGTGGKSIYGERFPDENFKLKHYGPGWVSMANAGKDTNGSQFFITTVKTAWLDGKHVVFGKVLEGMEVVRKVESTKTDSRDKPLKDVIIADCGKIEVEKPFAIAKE
Sequence of OAT3 (Q8TCC7 whole entry): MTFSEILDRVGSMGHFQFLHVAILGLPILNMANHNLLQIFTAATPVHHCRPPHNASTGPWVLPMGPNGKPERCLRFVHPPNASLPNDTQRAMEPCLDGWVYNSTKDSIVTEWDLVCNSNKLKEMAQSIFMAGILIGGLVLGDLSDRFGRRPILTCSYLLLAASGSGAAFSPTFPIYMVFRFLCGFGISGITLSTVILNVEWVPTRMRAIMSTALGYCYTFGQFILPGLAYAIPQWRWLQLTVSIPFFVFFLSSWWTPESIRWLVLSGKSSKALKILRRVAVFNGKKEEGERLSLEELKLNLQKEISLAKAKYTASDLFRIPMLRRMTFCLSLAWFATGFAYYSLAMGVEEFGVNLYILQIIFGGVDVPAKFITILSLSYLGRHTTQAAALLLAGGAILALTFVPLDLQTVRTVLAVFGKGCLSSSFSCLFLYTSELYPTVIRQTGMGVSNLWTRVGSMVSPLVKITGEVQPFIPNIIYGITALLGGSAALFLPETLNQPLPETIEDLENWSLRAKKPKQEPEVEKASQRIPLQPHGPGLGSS
T4 sequence (O95342 whole entry): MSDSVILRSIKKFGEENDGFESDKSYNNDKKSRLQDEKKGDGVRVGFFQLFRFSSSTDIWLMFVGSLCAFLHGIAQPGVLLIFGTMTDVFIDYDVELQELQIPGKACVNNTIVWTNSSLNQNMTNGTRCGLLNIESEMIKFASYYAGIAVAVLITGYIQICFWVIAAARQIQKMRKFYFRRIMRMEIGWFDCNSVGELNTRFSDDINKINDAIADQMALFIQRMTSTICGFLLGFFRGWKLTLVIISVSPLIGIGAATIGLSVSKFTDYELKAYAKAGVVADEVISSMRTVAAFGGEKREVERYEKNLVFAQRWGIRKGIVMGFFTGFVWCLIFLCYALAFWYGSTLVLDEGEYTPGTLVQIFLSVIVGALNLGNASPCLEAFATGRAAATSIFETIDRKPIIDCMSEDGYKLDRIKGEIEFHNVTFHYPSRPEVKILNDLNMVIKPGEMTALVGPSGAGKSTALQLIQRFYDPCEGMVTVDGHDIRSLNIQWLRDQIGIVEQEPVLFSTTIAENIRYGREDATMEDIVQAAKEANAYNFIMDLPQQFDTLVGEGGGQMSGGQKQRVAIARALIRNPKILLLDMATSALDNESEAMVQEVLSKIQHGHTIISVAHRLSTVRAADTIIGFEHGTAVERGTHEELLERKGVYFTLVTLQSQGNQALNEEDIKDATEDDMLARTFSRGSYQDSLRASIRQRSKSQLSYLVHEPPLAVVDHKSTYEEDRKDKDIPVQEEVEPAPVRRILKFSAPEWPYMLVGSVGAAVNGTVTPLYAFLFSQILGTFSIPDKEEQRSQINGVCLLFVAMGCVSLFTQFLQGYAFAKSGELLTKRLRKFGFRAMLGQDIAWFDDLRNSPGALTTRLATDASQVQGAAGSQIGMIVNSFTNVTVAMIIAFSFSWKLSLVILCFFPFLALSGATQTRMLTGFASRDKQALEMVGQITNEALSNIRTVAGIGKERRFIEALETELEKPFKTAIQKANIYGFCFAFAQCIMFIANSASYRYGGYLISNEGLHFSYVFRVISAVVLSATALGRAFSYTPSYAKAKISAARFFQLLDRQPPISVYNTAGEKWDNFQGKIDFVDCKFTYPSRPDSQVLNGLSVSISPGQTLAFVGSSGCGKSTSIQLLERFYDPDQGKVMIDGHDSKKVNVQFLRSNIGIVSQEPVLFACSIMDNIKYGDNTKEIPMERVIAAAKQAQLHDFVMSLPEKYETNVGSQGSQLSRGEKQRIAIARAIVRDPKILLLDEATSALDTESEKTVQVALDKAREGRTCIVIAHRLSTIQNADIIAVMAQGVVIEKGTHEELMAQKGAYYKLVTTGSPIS
T3 sequence (Q14973 whole entry): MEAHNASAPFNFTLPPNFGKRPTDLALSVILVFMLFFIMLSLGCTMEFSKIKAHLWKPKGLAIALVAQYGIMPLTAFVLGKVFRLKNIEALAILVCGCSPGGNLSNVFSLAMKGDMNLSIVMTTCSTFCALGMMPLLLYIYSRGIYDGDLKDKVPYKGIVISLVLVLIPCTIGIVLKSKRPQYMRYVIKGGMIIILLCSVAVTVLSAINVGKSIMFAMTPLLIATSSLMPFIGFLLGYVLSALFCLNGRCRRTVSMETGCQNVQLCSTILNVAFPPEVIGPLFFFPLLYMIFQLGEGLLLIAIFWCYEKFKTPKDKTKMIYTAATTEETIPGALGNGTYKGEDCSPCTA
T2 sequence (P30405 30-207): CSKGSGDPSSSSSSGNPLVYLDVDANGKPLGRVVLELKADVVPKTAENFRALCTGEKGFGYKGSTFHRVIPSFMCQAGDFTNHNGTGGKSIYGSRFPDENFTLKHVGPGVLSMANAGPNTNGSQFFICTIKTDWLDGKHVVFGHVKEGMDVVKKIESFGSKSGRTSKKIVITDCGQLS
Sequence of OATP1B3 (Q9NPD5 whole entry): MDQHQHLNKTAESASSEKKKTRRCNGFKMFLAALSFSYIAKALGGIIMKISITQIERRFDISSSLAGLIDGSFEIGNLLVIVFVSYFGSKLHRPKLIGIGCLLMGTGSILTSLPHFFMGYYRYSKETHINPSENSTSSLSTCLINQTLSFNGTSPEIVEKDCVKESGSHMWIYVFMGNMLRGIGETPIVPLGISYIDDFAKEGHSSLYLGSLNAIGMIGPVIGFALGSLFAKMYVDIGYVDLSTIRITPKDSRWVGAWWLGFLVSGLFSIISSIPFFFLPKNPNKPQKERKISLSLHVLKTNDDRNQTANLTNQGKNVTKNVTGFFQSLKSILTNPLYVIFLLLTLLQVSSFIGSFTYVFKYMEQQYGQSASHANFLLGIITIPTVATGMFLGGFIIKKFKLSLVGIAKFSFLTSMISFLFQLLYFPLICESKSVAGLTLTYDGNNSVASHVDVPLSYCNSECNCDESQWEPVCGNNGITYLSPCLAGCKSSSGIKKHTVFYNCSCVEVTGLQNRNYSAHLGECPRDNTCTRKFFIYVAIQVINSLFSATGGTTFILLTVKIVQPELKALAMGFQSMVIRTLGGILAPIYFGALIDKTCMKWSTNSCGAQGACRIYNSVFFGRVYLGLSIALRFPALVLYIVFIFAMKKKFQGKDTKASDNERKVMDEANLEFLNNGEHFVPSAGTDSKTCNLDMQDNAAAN
Sequence of BCRP (Q9UNQ0 whole entry): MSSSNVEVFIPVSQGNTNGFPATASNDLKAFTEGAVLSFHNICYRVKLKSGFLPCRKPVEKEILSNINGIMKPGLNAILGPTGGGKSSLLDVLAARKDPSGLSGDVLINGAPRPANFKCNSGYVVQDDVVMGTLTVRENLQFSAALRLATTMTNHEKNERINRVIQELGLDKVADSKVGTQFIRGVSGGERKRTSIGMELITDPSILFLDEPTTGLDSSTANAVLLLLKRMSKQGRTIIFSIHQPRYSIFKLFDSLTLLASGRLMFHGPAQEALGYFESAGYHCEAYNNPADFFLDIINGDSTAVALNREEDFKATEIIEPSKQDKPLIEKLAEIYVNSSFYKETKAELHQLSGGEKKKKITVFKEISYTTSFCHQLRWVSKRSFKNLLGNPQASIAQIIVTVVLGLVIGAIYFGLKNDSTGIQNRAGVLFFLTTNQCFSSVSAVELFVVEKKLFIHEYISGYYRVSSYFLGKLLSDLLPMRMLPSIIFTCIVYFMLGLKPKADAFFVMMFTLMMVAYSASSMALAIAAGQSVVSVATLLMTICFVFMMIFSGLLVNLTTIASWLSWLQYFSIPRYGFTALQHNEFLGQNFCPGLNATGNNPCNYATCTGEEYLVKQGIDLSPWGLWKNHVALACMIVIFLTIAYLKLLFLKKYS

SMILES: CC[C@@H]1NC(=O)[C@H]([C@H](O)[C@H](C)CCCCCCNC(C)=O)N(C)C(=O)[C@H](C(C)C)N(C)C(=O)[C@H](CC(C)C)N(C)C(=O)[C@H](CC(C)C)N(C)C(=O)[C@@H](C)NC(=O)[C@H](C)NC(=O)[C@H](CC(C)C)N(C)C(=O)[C@H](C(C)C)NC(=O)[C@H](CC(C)C)N(C)C(=O)[C@@H](C)N(C)C1=O [CRV431] (cyclo(A[dA][NMeL][NMeL][NMeV][NMeThr(4R-Me,4-(CH2)6NHAc)][Abu][dNMeA][NMeL]V[NMeL]))
- IC50 Fold Difference (recombinant Cyp B (PPIB); CsA IC50 vs CRV431 IC50, PPIB): 3.7
- IC50 (recombinant Cyp B (PPIB); PPIB (Cyp B), one peptide substrate concentration): 3.1 nM
- IC50 (recombinant Cyp D (PPIF)): 2.8 nM
- IC50 Fold Difference (recombinant Cyp D (PPIF); CsA IC50 vs CRV431 IC50, PPIF): 3.6
- IC50 [1, 8]: 292 nM
- NFAT–Luc IC50 Fold Difference ([1]; CD3 + CD28 antibodies): 65.4
- NFAT–Luc IC50 Fold Difference ([1]; PMA + A23187): 60.2
- IC50 ([1]; PMA + A23187 stimulation): 205 nM
- times less potent than CsA on Jurkat–NFAT cells ([1]; ratio of CRV431 and CsA IC50): ~63 times
- IC50 [2, 8]: 312 nM
- IL-2–Luc IC50 Fold Difference ([2]; CD3 + CD28 antibodies): 34.6
- IL-2–Luc IC50 Fold Difference ([2]; PMA + A23187): 36.9
- IC50 ([2]; PMA + A23187 stimulation): 300 nM
- times less potent than CsA on Jurkat–IL-2 cells ([2]; ratio of CRV431 and CsA IC50): approximately 35 times
- suppression of Jurkat activation ([3]; CRV431 tested up to 20 µM): not able to completely suppress activation
- immunosuppression potency relative to CsA levels ([3]; from the multiple in vitro immunosuppression assays): ≤ 3%
- IC50 ([3]; range over both reporter lines and both stimulations, nonlinear regression, read-out: IC50 values, Jurkat activation): 205 to 311 nM
- IC50 ([3]; read-out: estimates of 50% inhibition derived directly from the graphs, range over Jurkat reporter assays): 340 to 500 nM
- fold lower activity than CsA toward sodium-dependent taurocholic acid cotransporting polypeptide (NTCP): 45 fold
- IC50 (NTCP; NTCP, HEK293): 45300 nM
- Liver:Blood [CRV431] Ratio ([4]; CCl4, 50 mg/kg per day oral, day 42, 4 hours post-dose): 15.4 ± 10.4
- Liver:Blood [CRV431] Ratio ([4]; NASH, 50 mg/kg per day oral, day 189, 3 hours post-dose): 11.9 ± 8.5
- peak blood levels at which CRV431 efficacy occurred in mice ([4]; mouse, in vivo): 1.2 to 1.4 µg/mL
- Blood [4, 9]: 1.4 ± 1.5 µg/mL
- Liver [4, 9]: 11.6 ± 9.0 µg/g
- Liver:Blood [CRV431] Ratio ([5]; 30 mg/kg per day oral, day 7, 12 hours post-dose): 6.6 ± 1.1
- Liver:Blood [CRV431] Ratio ([5]; 30 mg/kg per day oral, day 7, 24 hours post-dose): 4.8 ± 1.1
- Liver:Blood [CRV431] Ratio ([5]; 250 mg/kg per day oral, day 7, 12 hours post-dose): 7.6 ± 1.8
- Liver:Blood [CRV431] Ratio ([5]; 250 mg/kg per day oral, day 7, 24 hours post-dose): 5.3 ± 0.6
- IC50 (BCRP): 23000 nM
- IC50 (BSEP [6]): 1420 nM
- IC50 (OATP1B3): 600 nM
- CRV431 Inhibitory Potency vs. CsA (BSEP [7]): 3.4× less
- CRV431 Inhibitory Potency vs. CsA (OAT3): >21× more
- IC50 (OAT3): 473 nM
